Source: patent US5466687A, “Arylidene-1-azacycloalkanes and arylalkyl-1-azacyclo-alkanes, their salts, medicaments containing these compounds and their use, and processes for their preparation” (priority 1992, dated 1995)

Key:
[1] = tested on: human hepatoma cells (HEP-G2); test: Inhibition of 14C-acetate incorporation in digitonin-precipitatable steroids in HEP-G2 cells; type: cell-based; conditions: for percent change in 14C-acetate incorporation into sterols at 0.1 µM / percent change in 14C-acetate incorporation into sterols at 0.01 µM: Homo sapiens; for percent change in 14C-acetate incorporation into sterols at 0.1 µM: HepG2, 10^-7 mol/l; for percent change in 14C-acetate incorporation into sterols at 0.01 µM: HepG2, 10^-8 mol/l
Description: I. Measurement of the inhibition of ^14 C-acetate incorporation in digitonin-precipitatable steroids:
After 3 days of culture, human hepatoma cells (HEP-G2) are stimulated for 16 hours in cholesterol-free medium. The substances to be tested (dissolved in dimethyl sulphoxide, final concentration 0.1%) are added during this stimulation phase. After the addition of 200 μmol/l of 2-^14 C-acetate, the mixture is then reincubated at 37° C. for a further 2 hours.
The cells are detached and the sterol esters are hydrolyzed and, after extraction, sterols are precipitated using digitonin. The ^14 C-acetate incorporated into digitonin-precipitatable sterols is determined by scintillation measurement.
The investigation of the inhibitory action was carried out at test concentrations of 10^-7 mol/l and 10^-8 mol/l. The test results of the following compounds A to AG of the general formula I are indicated at these test concentrations by way of example: […]

[2] = tested on: 2,3-epoxysqualene-lanosterol cyclase; test: In vivo effect in the rat after oral administration: 2,3-epoxysqualene level in plasma; set-up: species or system rat (male Wistar); conditions: 5 hours after administration
Description: II. Measurement of the in vivo effect in the rat after oral administration
The inhibition of the enzyme 2,3-epoxysqualene-lanosterol cyclase causes an increase in the 2,3-epoxy-squalene level in the liver and plasma. Therefore, the amount of 2,3-epoxysqualene formed therefore serves as a direct measure of the effectiveness in the whole animal. The determination is carried out by the following method:
The test substance suspended in 1.5% strength aqueous methylcellulose is administered via stomach tube to male Wistar rats (160-190 g body weight). 5 hours after administration, blood is obtained retroorbitally from the venous plexus. Plasma is extracted by the method of Bligh and Dyer (Canad. J. Biochem. Physiol. 37, 912, [1959]), purified by means of a precolumn and then analyzed by means of HPLC. The peaks obtained are identified and quantified by means of calibration substances. An internal standard is used to check the reproducibility of the results.
The investigations were carried out using concentrations of 0.1 and 1.0 mg/kg. The results for the above mentioned substances A to M are compiled in the following Table by way of example: […]

[3] = Toxic effects in the mouse after oral administration; type: in vivo; conditions: oral 100 mg/kg, once daily for 4 days
From the text: The compounds A to I appeared to be non-toxic at the curative dose.

[4] = tested on: Normal human epidermal keratinocytes (NHEK); test: Inhibition of cell proliferation of keratinocytes; type: cell-based; conditions: 48 h, read-out: percentage decrease in cell numbers
Description: V. Inhibition of cell proliferation
Normal human epidermal keratinocytes (NHEK) are cultured under sterile conditions in keratinocyte growth medium (Gibco) in a humidified, 5% CO2 -containing atmosphere. Cells of the third passage are inoculated at a density of 12,000 cells/ml.
After 24 hours, the test substance is added to the medium and the number of cells is determined after a further 48 hours. The results were calculated in comparison to a control and are indicated as the percentage decrease in cell numbers.
The proliferation-inhibiting action of the above mentioned compound A was tested in comparison to simvastatin at concentrations of 10^-6 to 10^-10 mol/l.

[5] = cited from earlier work

SMILES	percent change in 14C-acetate incorporation into sterols at 0.1 µM [1] [%]	percent change in 14C-acetate incorporation into sterols at 0.01 µM [1] [%]	2,3-Epoxysqualene concentration in plasma (rat) ([2]; 0.1 mg/kg oral) [µg/mL]	2,3-Epoxysqualene concentration in plasma (rat) ([2]; 1.0 mg/kg oral) [µg/mL]	further results
O=C(c1ccc(Cl)cc1)N1CCC(=Cc2ccc(C3=NCCCO3)cc2)CC1 [B, 1-(4-chlorobenzoyl)-4-[4-(4,5-dihydro-6H-oxazin-2-yl)benzylidene]piperidine]	-77	-51	0.46	3.14	
O=C(c1ccc(C(F)(F)F)cc1)N1CCC(=Cc2ccc(C3=NCCO3)cc2)CC1 [C, 4-[4-(2-oxazolin-2-yl)benzylidene]-1-(4-trifluoromethylbenzoyl)piperidine]	-90	-74	0.91	5.90	
Cc1cc(C(=O)N2CCC(=Cc3ccc(C4=NCCO4)cc3)CC2)ccc1Cl [D, 1-(4-chloro-3-methylbenzoyl)-4-[4-(2-oxazolin-2-yl)benzylidene]piperidine]	-88	-55	0.78	3.35	
O=C(c1ccc(F)cc1)N1CCC(=Cc2ccc(C3=NCCO3)cc2)CC1 [E, 1-(4-fluorobenzoyl)-4-[4-(2-oxazolin-2-yl)benzylidene]piperidine]	-81	-36	0.67	6.09	
O=C(c1ccc(Cl)s1)N1CCC(=Cc2ccc(C3=NCCO3)cc2)CC1 [F, 1-(5-chloro-2-thienoyl)-4-[4-(2-oxazolin-2-yl)benzylidene]piperidine]	-84		0.00	2.00	inhibition of 14C-acetate incorporation ([1]; 10^-8 mol/l): -55%
O=C(C1CCCCC1)N1CCC(=Cc2ccc(C3=NCCO3)cc2)CC1 [G, 1-cyclohexanecarbonyl-4-[4-(2-oxazolin-2-yl)benzylidene]piperidine]	-80	-45	0.36	0.31	
O=C(c1ccc(C(F)(F)F)cc1)N1CCC(Cc2ccc(C3=NCCO3)cc2)CC1 [H, 4-[4-(2-oxazolin-2-yl)benzyl]-1-(4-trifluoromethylbenzoyl)piperidine]	-86	-62	1.70	9.15	toxic effects in the mouse [3]: no toxic effects
O=C(c1ccc(Cl)cc1)N1CCC(=Cc2ccc(C3=NCCO3)cc2)C1 [K, 1-(4-chlorobenzoyl)-3-[4-(2-oxazolin-2-yl)benzylidene]pyrrolidine]	-90	-56	0.0	4.14	
O=C(c1ccc(Cl)cc1)N1CCC(=Cc2ccc(C3=NCCO3)cc2F)CC1 [L, 1-(4-chlorobenzoyl)-4-[2-fluoro-4-(2-oxazolin-2-yl)benzylidene]piperidine]	-83	-52	0.44	6.46	
Cc1cc(C=C2CCN(C(=O)c3ccc(Cl)cc3)CC2)ccc1C1=NCCO1 [M, 1-(4-chlorobenzoyl)-4-[3-methyl-4-(2-oxazolin-2-yl)benzylidene]piperidine]	-76	-32	0.78	6.53	
CCC(C)(C)C(=O)O[C@H]1C[C@@H](C)C=C2C=C[C@H](C)[C@H](CC[C@@H]3C[C@@H](O)CC(=O)O3)[C@H]21 [Simvastatin, simvastatin, reference compound]					inhibition at 0.0001 µM [4]: 7%; inhibition at 0.001 µM [4]: 21%; inhibition at 0.01 µM [4]: 20%; inhibition at 0.1 µM [4]: 51%; inhibition at 1 µM [4]: 68%
O=C(c1ccc(Cl)cc1)N1CCC(=Cc2ccc(C3=NC(CO)CO3)cc2)CC1 (stereo not drawn) [U, 1-(4-chlorobenzoyl)-4-[4-(4-hydroxymethyl-2-oxazolin-2-yl)benzylidene]piperidine]	-60	-21			
O=C(c1ccc(Cl)cc1)N1CCC(=Cc2ccc(C3=N[C@@H](Cc4ccccc4)CO3)cc2)CC1 [V, 4-[4-(S-4-benzyl-2-oxazolin-2-yl)benzylidene]-1-(4-chlorobenzoyl)piperidine]	-29	-15			
CC(=C1CCN(C(=O)c2ccc(Cl)cc2)CC1)c1ccc(C2=NCCO2)cc1 [W, 1-(4-chlorobenzoyl)-4-[4-(2-oxazolin-2-yl)-α-methylbenzylidene]piperidine]	-77	-35			
O=C(c1ccc(Cl)s1)N1CCC(=Cc2ccc(C3=NCCO3)cc2)CC1 [X, 1-(5-chloro-2-thienoyl)-4-[4-(2-oxazolin-2-yl)benzylidene]piperidine]					inhibition of 14C-acetate incorporation ([1]; 10^-7 mol/l): -84%; inhibition of 14C-acetate incorporation ([1]; 10^-8 mol/l): -35%
N#Cc1ccc(C(=O)N2CCC(=Cc3ccc(C4=NCCO4)cc3)CC2)cc1 [Y, 1-(4-cyanobenzoyl)-4-[4-(2-oxazolin-2-yl)benzylidene]piperidine]	-74	-51			
O=C(c1c(F)c(F)c(F)c(F)c1F)N1CCC(=Cc2ccc(C3=NCCO3)cc2)CC1 [Z, 4-[4-(2-oxazolin-2-yl)benzylidene]-1-(pentafluorobenzoyl)piperidine]	-45	-8			
CC[C@H](C)C(=O)O[C@H]1C[C@H](O)C=C2C=C[C@H](C)[C@H](CC[C@@H](O)C[C@@H](O)CC(=O)O)[C@H]21 [pravastatin]					cholesterol concentration in the bile / lithogenic index ([5]; Gut 31, 348-350 [1990], Z. Gastroenterol. 29, 242-245 [1991]): can cause a reduction of the cholesterol concentration in the bile; gallstone formation ([5]; in vivo): do not lead to increased gallstone formation
